# According to patent publication US20240139190A1, “NOVEL ANTIPARASITIC COMPOUNDS AND METHODS” (The Board of Regents of The University of Texas System, priority 2019, published 2024):
# Legend:
# [1] = tested on: L. amazonensis axenic amastigotes; experiment: alamarBlue viability / concentration-response assay, axenic amastigotes; type: cell-based, Leishmania amazonensis; settings: Leishmania amazonensis, 72 h, L. amazonensis, stage not stated; read-out: EC50^72 h for La
# Description: Leishmania amazonensis axenic amastigotes (100 μL, 2×10^6 cells/mL) were added to 96-multiwell plates containing 100 μL of amastigote culture medium with an appropriate compound dilution series. 0.1% DMSO (no drug) served as a positive control (100%), and 5 μM amphotericin B served as a negative growth control (0%). Only internal wells were used to minimize edge effects from evaporation. Axenic amastigotes were incubated at 32° C. with a compound/drug for 72 h prior to measurement. Similarly, the cytotoxicity of each compound was determined against RAW 264.7 cells and HepG2 cell lines, following 72 h incubation at 37° C. (promastigotes at 26° C.).
# 10% alamarBlue® (Thermo Fisher Scientific) was used to measure the growth of both parasite and mammalian cells. Conversion from a blue oxidized state to a pink reduced state was assessed visually at 6 hr. The fluorescence signal was measured with a BioTek Synergy H1 plate reader (530 nm excitation, 570 nm emission). For bioluminescence assays using L. amazonensisluc, relative luminescence units (RLU) were measured using Britelite Plus (PerkinElmer, USA). Luminescence produced by this luciferase reaction is proportional to the amount of luciferase-expressing, viable L. amazonensisluc. Following five-minute incubation at room temperature, the luminescence was measured with a BioTek Synergy H1 plate reader.
# All experiments were conducted as three technical triplicates on the same plate, with at least three independent biological repeats of each plate performed. For all assays, percent growth was expressed as a proportion of the untreated (positive) control (i.e. 100%) and plotted against drug/compound concentration. The concentration was then log10 transformed and EC50 values were determined using nonlinear regression (sigmoidal dose-response/variable slope equation) in GraphPad Prism v5.0 (GraphPad Software, Inc., San Diego, CA).
# To identify antileishmanial compounds, a microplate-based alamarBlue® assay was used to quickly triage the 400 drug-like compounds available in the MMV Pathogen Box collection. […] A three-step process was used to screen the Pathogen Box: 1) identify hits against axenic amastigotes, 2) confirm the inhibitory concentrations of these hits against axenic amastigotes, 3) evaluate hits for potency against intracellular parasites using fluorescence and bioluminescence-based intracellular assays. The MMV Pathogen Box resource was tested at two concentrations (5 μM and 1 μM, 72 h endpoint) on axenic amastigotes.
# Hits were defined as compounds that, at a concentration of 1 μM, decreased the relative fluorescence intensity signal to ≤70% of that produced by parasites incubated in vehicle (0.06% DMSO) only (FIG. 9).
# [2] = target: purified L. tarentolae tubulin (Leishmania tarentolae, UniProt A0A640KCM0+A0A640KQN0); experiment: Tubulin polymerization turbidity assay, Leishmania tubulin; type: biochemical
# Description: L. tarentolae (Parrot strain from ATCC) tubulin was purified. Briefly, promastigotes of L. tarentolae were grown to a high density (˜1×10^8 cells/mL), harvested, and resuspended in PME+P buffer containing 100 mM piperazine N, N′-bis (2-ethanesulfonic acid) (PIPES) buffer (pH 6.9), 1 mM glycol ether diamine tetraacetic acid (EGTA), 1 mM MgCl2, 1 mM benzamidine, 0.5 mM phenylmethylsulfonyl fluoride, 25 μg/ml leupeptin. The resulting suspension was extensively sonicated on ice with a probe sonicator (Misonix), cooled on ice for 30 minutes and centrifuged at 40,000×g for 1 hour at 4° C. using an ultracentrifuge (Beckman, Fullerton, CA). The resulting supernatant was filtered through a glass wool or 0.45-micron filter before loading into an equilibrated DEAE-Sepharose Fast Flow matrix (Amersham Biosciences). The column was washed with two column volumes of PME+P and subsequently four column volumes PME+P containing 0.1 M KCl and 0.25 M glutamate (pH 6.9). Tubulin was eluted with two column volumes PME+P containing 0.3 M KCl and 0.75 M glutamate (pH 6.9), and tubulin-rich fractions were confirmed by tubulin polymerization assays. The assembly-competent tubulin was pooled together and diluted into 1×PME buffer, 2 mM GTP, 10 mM MgCl2 and 8% DMSO (v/v). Tubulin was incubated in this buffer for 45 minutes at 30° C. to promote assembly, centrifuged at 50,000×g at 30° C. for 30 min, and re-suspended in 1 mL of ice-cold PME. […] Purity was assessed by SDS-PAGE and Coomassie Blue.
# Tubulin polymerization assays were performed in 96-well half-area microplates (Costar) in a final volume of 100 μL. […] The absorbance at 340 nm was recorded in a Synergy H1 microplate reader (BioTek) for up to 45 min at 37° C. […]
# To determine whether MMV676477 directly regulates microtubule assembly, assembly-competent tubulin from Leishmania tarentolae was purified and analyzed (FIG. 5A). […] 3 mg/mL purified L. tarentolae tubulin (3 mg/mL) was treated with serial dilutions of MMV676477 while the absorbance was measured at 340 nm over time.
# [3] = target: T1, purified porcine tubulin (Sus scrofa, UniProt P02550+P02554); experiment: Tubulin polymerization turbidity assay, mammalian tubulin; type: biochemical
# T1 construct: purchased Cytoskeleton, Inc. T240
# Description: Tubulin polymerization assays were performed in 96-well half-area microplates (Costar) in a final volume of 100 μL. Briefly, Leishmanial or porcine tubulin (>99% pure, Cat. #T240, Cytoskeleton, Inc.) in 50 μL volume was pre-treated with drugs on ice for 5 minutes before adding 50 μL ice cold buffer, to provide a final concentration of 3 mg/ml tubulin in 80 mM PIPES pH 6.9, 2 mM MgCl2, 0.5 mM EGTA, 1 mM GTP, and 1% DMSO unless specified otherwise. The absorbance at 340 nm was recorded in a Synergy H1 microplate reader (BioTek) for up to 45 min at 37° C. (porcine tubulin) or 30° C. (L. tarentolae tubulin).
# (§1) To determine the selectivity of MMV676477, purified porcine tubulin was exposed to a serial dilution of the drug (0 to 25 μM) and absorbance was measured at 340 nm over time. […] To ensure that the absorbance seen at 340 nm reflected microtubule formation and not precipitation, a fluorescent microtubule assembly assay was employed.
# [4] = tested on: cellular tubulin of L. amazonensis; experiment: Polymerized vs. unpolymerized tubulin in parasites (differential centrifugation, western blot); type: cell-based, Leishmania amazonensis; settings: 24 h at EC50^72 h, densitometry
# Description: (§2) One reason why MMV676477 might affect parasite cell division is that, like paclitaxel, it might affect microtubule polymerization, either directly or indirectly. The degree to which MMV676477 affected microtubules polymerization in cells was examined. […] Centrifugation of these extracts allowed separation of insoluble polymeric (pellet) and soluble dimeric (supernatant) tubulin. […] The intensity of α-tubulin staining was examined by normalizing it to the intensity of a membrane protein (gp46 for promastigotes in FIG. 4D; p8 for amastigotes in FIG. 4E).
# [5] = tested on: L. amazonensis promastigotes and amastigotes; experiment: Tubulin intensity by confocal immunofluorescence microscopy; type: cell-based, Leishmania amazonensis; settings: 24 h at EC50^72 h
# Description: Promastigotes or amastigotes were treated with the indicated compound concentrations and allowed to adhere to poly-L-lysine coated plates. All cells were fixed with 4% paraformaldehyde and permeabilized/blocked with 0.01% Triton X-100 and 2% BSA in PBS. Promastigotes and amastigotes were incubated with mouse anti-gp46 or anti-p8, respectively at 1:50 or 1:1000 and rat anti-alpha-tubulin antibody at 1:1000. Samples were then probed with A568 anti-mouse and […] secondary antibodies (Molecular Probes). DNA was labeled with Hoescht. Samples were visualized on a Zeiss LSM 880 Inverted confocal Airyscan microscope at 63×; full Z-thicknesses through parasites were obtained. […] For microscopic analysis of mitotic arrest, at least 200 parasites were analyzed per condition per experiment after 48 hrs incubation at compounds' EC50, and the average plus standard error for three experiments was calculated. Representative images were selected from the maximal intensity projections and linearly processed in Adobe Photoshop CS6.
# as §2
# [6] = target: T1, purified porcine tubulin; experiment: Fluorescent microtubule assembly assay; type: biochemical; settings: mammalian tubulin, fluorescence micrographs
# Description: as §1
compound,measurement,setting,value
CC(=O)O[C@H]1C(=O)[C@@]2(C)[C@H]([C@H](OC(=O)c3ccccc3)[C@]3(O)C[C@H](OC(=O)[C@H](O)[C@@H](NC(=O)c4ccccc4)c4ccccc4)C(C)=C1C3(C)C)[C@]1(OC(C)=O)CO[C@@H]1C[C@@H]2O [paclitaxel],EC50,[1],0.76 µM
same,EC50,[2],1.3 µM
same,EC50,"[3]; 3 mg/ml tubulin, 1% DMSO, A340",1.5 ± 0.2 µM
same,"Maximum absorbance (A340, 10% DMSO)",[3]; mammalian tubulin,0.36
same,proportion of cellular polymeric tubulin,[4],significantly increased the proportion of cellular polymeric tubulin
same,tubulin intensity over control (DMSO-treated),[5],significant two-fold increase in tubulin intensity
same,microtubules formed vs control,[6],many more microtubules were formed
